Substitutions are numbered along the chain they refer to. “And” between values parts separate entries of the source, which are not always exact repeats. Equal entries are not always repeated.
Columns and labels:
Type in all cases: biochemical
[1] = target: T1, Arabidopsis thaliana PIN8 (Arabidopsis thaliana, UniProt Q9LFP6); assay: SSM electrophysiology peak current response, wild-type PIN8 proteoliposomes; details: for EC50: EC50 of peak current response; for EC50 / Imax: WT PIN8, Michaelis-Menten fit; for peak width of SSM current response at various lipid-to-protein ratios (LPR): LPR10 vs LPR50, variation is consistent with transport
T1 sequence (Q9LFP6 1-367): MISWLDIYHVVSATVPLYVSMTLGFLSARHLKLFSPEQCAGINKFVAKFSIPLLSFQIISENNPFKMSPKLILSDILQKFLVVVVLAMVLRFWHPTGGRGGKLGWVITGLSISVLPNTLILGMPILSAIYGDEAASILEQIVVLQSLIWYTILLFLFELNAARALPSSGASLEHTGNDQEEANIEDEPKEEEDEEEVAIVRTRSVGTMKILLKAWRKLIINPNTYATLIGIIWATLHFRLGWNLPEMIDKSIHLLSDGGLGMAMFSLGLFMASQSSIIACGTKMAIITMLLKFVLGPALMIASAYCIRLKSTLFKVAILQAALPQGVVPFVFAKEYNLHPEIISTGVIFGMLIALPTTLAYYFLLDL

PIN8 S146A = target: T2, PIN8 S146A (Arabidopsis thaliana, UniProt Q9LFP6, S146A); assay: SSM electrophysiology peak current response, PIN8 S146A proteoliposomes; details: for Imax: PIN8 S146A
T2 sequence (Q9LFP6 1-367 S146A): T1 sequence (Q9LFP6 1-367) with S146A

PIN8 Y150A = target: T3, PIN8 Y150A (Arabidopsis thaliana, UniProt Q9LFP6, Y150A); assay: SSM electrophysiology peak current response, PIN8 Y150A proteoliposomes; details: for Imax: PIN8 Y150A
T3 sequence (Q9LFP6 1-367 Y150A): T1 sequence (Q9LFP6 1-367) with Y150A

PIN8 I51Y = target: T4, PIN8 I51Y (Arabidopsis thaliana, UniProt Q9LFP6, I51Y); assay: SSM electrophysiology peak current response, PIN8 I51Y proteoliposomes; details: for Imax: PIN8 I51Y
T4 sequence (Q9LFP6 1-367 I51Y): T1 sequence (Q9LFP6 1-367) with I51Y

PIN8 S266A = target: T5, PIN8 S266A (Arabidopsis thaliana, UniProt Q9LFP6, S266A); assay: SSM electrophysiology peak current response, PIN8 S266A proteoliposomes; details: for Imax: PIN8 S266A
T5 sequence (Q9LFP6 1-367 S266A): T1 sequence (Q9LFP6 1-367) with S266A

PIN8 N223A = target: T6, PIN8 N223A (Arabidopsis thaliana, UniProt Q9LFP6, N223A); assay: SSM electrophysiology peak current response, PIN8 N223A proteoliposomes; details: for effect of N223A mutation on affinity/binding: PIN8 N223A vs WT
T6 sequence (Q9LFP6 1-367 N223A): T1 sequence (Q9LFP6 1-367) with N223A

PIN8 S55A/S146A = target: T7, PIN8 S55A/S146A (Arabidopsis thaliana, UniProt Q9LFP6, S146A/S55A); assay: SSM electrophysiology peak current response, PIN8 S55A/S146A proteoliposomes; details: for Imax: PIN8 S55A/S146A
T7 sequence (Q9LFP6 1-367 S55A/S146A): T1 sequence (Q9LFP6 1-367) with S55A, S146A

In the case of O=C(O)COc1ccc(Cl)cc1 [4-CPA, 4-chlorophenoxyacetic acid], the EC50 [1] is reported as 800 ± 200 µM, the “peak width of SSM current response at various lipid-to-protein ratios (LPR)” value [1] is reported as “vary with LPR” and the Imax [1] is reported as 12 ± 2 nA. For the same molecule, the EC50 (PIN8 S146A) was 369 ± 27 µM, the Imax (PIN8 S146A) was 8 ± 2 nA and the EC50 (PIN8 Y150A) was 2620 ± 263 µM. For the same molecule, the Imax (PIN8 Y150A) was 5 ± 0.4 nA, the EC50 (PIN8 I51Y) was 1040 ± 252 µM and the Imax (PIN8 I51Y) was 3 ± 0.8 nA. For the same molecule, the EC50 (PIN8 S266A) was 2100 ± 290 µM, the Imax (PIN8 S266A) was 7 ± 2 nA and the “effect of N223A mutation on affinity/binding” value (“effect … on affinity/binding” for short) (PIN8 N223A) was “completely abolishes binding”. The EC50 (PIN8 S55A/S146A) was 81 ± 3 µM and the Imax (PIN8 S55A/S146A) was 11 ± 0.9 nA.

O=C(O)Cc1c[nH]c2ccccc12 [IAA, indole-3-acetic acid] was tested, and the EC50 [1] was 250 µM and 254 µM, the “peak width of SSM current response at various lipid-to-protein ratios (LPR)” value [1] was “vary with LPR” and the Imax [1] was 18 ± 3 nA. For the same molecule, the EC50 (PIN8 S146A) was 498 ± 191 µM, the Imax (PIN8 S146A) was 8 ± 2 nA and the EC50 (PIN8 Y150A) was 1210 ± 298 µM. For the same molecule, the Imax (PIN8 Y150A) was 4 ± 0.3 nA, the EC50 (PIN8 I51Y) was 547 ± 171 µM and the Imax (PIN8 I51Y) was 2 ± 0.2 nA. It also gave an EC50 (PIN8 S266A) of 578 ± 183 µM, an Imax (PIN8 S266A) of 4 ± 0.6 nA and an Imax (PIN8 N223A; PIN8 N223A) of 2 ± 0.8 nA. The “effect … on affinity/binding” value (PIN8 N223A) was “reduces affinity for IAA only slightly”, the EC50 (PIN8 S55A/S146A) was 341 ± 128 µM and the Imax (PIN8 S55A/S146A) was 7 ± 2 nA. For the same molecule, the “effect of S55A/S146A double mutation on affinity” value (PIN8 S55A/S146A; PIN8 S55A/S146A vs WT) was “no effect”.

For O=C(O)COc1ccc(Cl)cc1Cl [2,4-D, 2,4-dichlorophenoxyacetic acid], the EC50 [1] was 179 ± 10 µM, the “peak width of SSM current response at various lipid-to-protein ratios (LPR)” value [1] was “vary with LPR” and the Imax [1] was 17 ± 2 nA. For the same molecule, the EC50 (PIN8 S146A) was 164 ± 67 µM, the Imax (PIN8 S146A) was 8 ± 0.9 nA and the EC50 (PIN8 Y150A) was 684 ± 256 µM. For the same molecule, the Imax (PIN8 Y150A) was 5 ± 1 nA, the EC50 (PIN8 I51Y) was 641 ± 77 µM and the Imax (PIN8 I51Y) was 3 ± 0.8 nA. For the same molecule, the EC50 (PIN8 S266A) was 774 ± 70 µM, the Imax (PIN8 S266A) was 12 ± 0.7 nA and the “effect … on affinity/binding” value (PIN8 N223A) was “completely abolishes binding”. It also gave an EC50 (PIN8 S55A/S146A) of 38 ± 6 µM and an Imax (PIN8 S55A/S146A) of 9 ± 2 nA.

Reference: PMC11383987 (bioRxiv, 2024)
